Results as given in US5545615A, “A method of inhibiting fertilization by alpha-1-antitrypsin or antithrombin III” (ZymoGenetics, Inc., priority 1994, dated 1996).

What was measured:
[1] = system: boar acrosin; assay: Spectrophotometric acrosin assay with substrate BAEE; assay type: biochemical
Description: The effects of alpha-1-antitrypsin on purified acrosin were measured spectrophotometrically using the acrosin substrate N-α-benzoyl-L-arginine ethyl ester (BAEE) essentially as described by Polakoski and Zaneveld (Methods in Enzymology 45 (part B): 325, 1976). Boar acrosin was combined with AAT in 0.025M Tris, pH 7.0, containing BAEE. A control sample lacked AAT. The absorbance of the reaction mixture was monitored at 253 nm.
(§1) The nature of the reaction between AAT and acrosin was examined by electrophoresis under reducing and denaturing conditions and by Western blot analysis. AAT (2 μg) and activated boar proacrosin (5 μg) were incubated in a buffer containing 0.1M Tris, pH 8.0. Acrosin activity was inhibited 48% in the BAEE assay. […] Thus, all inhibition is accounted for by the formation of a covalent complex.

[2] = system: sperm and ova of hybrid mouse strain B6D2F1; assay: In vitro fertilization assay with mouse sperm and oocytes; assay type: cell-based
Description: The ability of AAT to inhibit fertilization in vitro was tested using sperm and ova obtained from the hybrid mouse strain B6D2F1. This strain was chosen because a 75% to 85% in vitro fertilization rate is routine and the female mice respond well to superovulatory drugs, producing an average of 30 normal oocytes per animal.
Oocytes were collected from 3- to 4-week-old female B6D2F1 mice. The animals received 5 international units of pregnant mare's serum gonadotropin to initiate follicular growth. After 48 hours, 5 international units of human chorionic gonadotropin were given to effect ovulation. Twelve hours after the last injection, oviducts were removed and oocytes were collected by puncture of the ampullary region, allowing the release of cumulus enclosed oocytes (cumulus clots) into 0.2 ml Fraser's medium (Fraser and Drury, Biol. Reprod. 13: 513-518, 1975) under paraffin oil. To randomize oocyte distribution, all cumulus clots were collected into one dish of medium and then placed into the fertilization medium. Oocytes were collected, on average, 15 minutes before sperm addition.
Sperm were collected from the cauda epididymus of 9- to 14-week-old male B6D2F1 mice of proven fertility. Each epididymus contained approximately 40 million sperm with 70% to 80% motility. […]
After the one-hour capacitation period, the sperm were counted by hemocytometer and […] sperm cells/ml were added to 0.2 ml Fraser's, medium (free of alpha-1-antitrypsin or containing AAT at the above concentrations) containing cumulus cell-enclosed oocytes. […]
The above experiments were designed to analyze the effective inhibitory concentration of alpha-1-antitrypsin and to detect differences in fertilization rate resulting from the capacitation/acrosome reaction state of the sperm. […] Data are expressed as percent oocytes with two pronuclei and a second polar body. […]

[3] = system: female mice; assay: In vivo inhibition of fertilization, intravaginal cream in female mice; set-up: species or system mouse; conditions: individual mice 1-5; cream 100 mg AAT/20 ml, 100 μl intravaginal prior to copulation; sacrificed 12 days after copulation
Description: For in vivo testing, a cream was prepared by dissolving 100 mg of recombinant AAT in 5 ml of phosphate-buffered saline (PBS; obtained from Sigma Chemical Co.). This solution was emulsified with 15 ml of K-Y Jelly (Johnson & Johnson) to give a final AAT concentration of 100 mg/20 ml.
The cream (100 μl) was administered intravaginal to female mice using an Eppendorf pipette prior to copulation. Control females were untreated or received a control cream consisting of 100 mg bovine serum albumin in 5 ml of PBS plus 15 ml of K-Y Jelly. Copulation was confirmed in two of five BSA controls and four of five experimental mice. Mice were sacrificed 12 days after copulation and the number of fetuses was noted. Results, shown in Table 1, indicate that alpha-1-antitrypsin is an effective contraceptive agent.

[4] = system: boar acrosin; conditions: cited from earlier work
[5] = system: boar acrosin; assay: SDS-PAGE / Western blot analysis of AAT-acrosin reaction mixture; assay type: binding
Description: Lanes 1 and 6, proacrosin (^~ 5 ug) autoactivated to acrosin; Lanes 2 and 7, alpha-1-antrypsin (^~ 2 ug); Lanes 3 and 8, alpha-1-antitrypsin (~2 ug)+activated proacrosin (~5 ug) in 0.1M Tris, pH 8.0; Lanes 4 and 9, alpha-1-antitrypsin (^~ 2 ug)+activated proacrosin (^~ 5 ug) in 0.1M Tris, 0.05M CaCl2, pH 8.0; Lane 5, molecular weight markers.
as §1

[6] = system: human acrosin; conditions: cited from earlier work
[7] = system: acrosin; conditions: cited from earlier work
[8] = system: fertilization in vitro; conditions: cited from earlier work

| Substance | Acrosin activity inhibited in the BAEE assay ([1]; AAT 2 μg + activated boar proacrosin 5 μg, 0.1M Tris, pH 8.0) | inhibition of acrosin in the test system (BAEE hydrolysis, absorbance at 253 nm) ([1]; boar acrosin combined with AAT in 0.025M Tris, pH 7.0, containing BAEE, amount of AAT tested) | blocking of fertilization ([2]; AAT in both capacitation and fertilization media, all concentrations except 0.01 mM (0.05-1 mM), FIG. 4) | concentrations of AAT effective in blocking fertilization ([2]; capacitation in AAT-containing medium, fertilization in control medium, FIG. 3) | decrease of fertilization rate (percent oocytes with two pronuclei and a second polar body) ([2]; sperm capacitated in control medium, fertilization in AAT-containing medium, all concentrations tested (0.01-1 mM), control fertilization rate 77%, FIG. 2) | Number of Fetuses [3] | inhibition of boar acrosin in vitro [4] | complex formation between inhibitor and enzyme (Western blot) ([5]; AAT 2 μg + activated boar proacrosin 5 μg, 0.1M Tris, pH 8.0, reducing and denaturing 12% SDS-PAGE) | complex formation between inhibitor and enzyme (Western blot) ([5]; same analysis in the presence of 0.05M CaCl2) | inhibition of human acrosin in vitro [6] | effect on acrosin activity [7] | effect on fertilization in vitro [8] |
| --- | --- | --- | --- | --- | --- | --- | --- | --- | --- | --- | --- | --- |
| alpha-1-antitrypsin [AAT] | 48% | complete inhibition | effective in blocking fertilization | greater than 0.2 mM | about 50% | 0 | inhibit | formation of a high molecular weight complex | essentially identical results | inhibit | – | – |
| soybean trypsin inhibitor | – | – | – | – | – | – | – | – | – | – | block acrosin activity | prevent fertilization in vitro |
